Measured values reported in patent publication US8871772B2, “Therapeutic methods and compounds” (Ampio Pharmaceuticals, Inc., priority 2008, dated 2014).

Legend:
Type in all cases: cell-based
[1] = test system: AU565 breast cancer cell line; assay: Proliferation of AU565 cancer cells, Promega cell titer assay; settings: 96 hours, negative number = increase
Procedure: Assays were performed to determine the effect of Cpd. 5 (synthesis described in Example 1) on proliferation of two cancer cell lines. These two cell lines were STTG grade 4 astrocytoma cell line and AU565 breast cancer cell line. Both cell lines were obtained from American Type Culture Collection, Rockville, Md. (ATCC).
To perform the assays, a 50 mM stock solution of Cpd. 5 was prepared in DMSO and frozen at −80° C. Aliquots of the stock solution were removed and 100 μM dilutions were made in Iscove's modified Dulbecco's medium (IMDM; obtained from ATCC) supplemented with 10% fetal bovine serum (FBS) and penicillin/streptomycin solution. Controls containing equivalent amounts of DMSO to the 100 μM solution were mixed for comparative purposes. 100 μl of the resulting solutions were then added to 96 well culture plates in triplicate and placed in a 37° C. incubator with 5% CO2 to warm.
At this point, cells were removed from passage flasks using trypsin and counted using trypan blue to establish cell counts/ml and viability. For all experiments, viability of cells was greater than 95%. Solutions of 4,000 cells/100 μl were prepared in the medium from above and 100 μl of the solutions were added to each well of the plates. The plates were placed back in the incubator and incubated with the compounds for 96 hours.
Following incubation, cell proliferation was assayed by adding 20 μl Promega cell titer aqueous one reagent to each well. […] The plates were incubated at 37° C. for an additional 4-18 hours to allow the colorimetric assay to develop, and the OD of each well was determined in a microplate reader using a 530 nm filter. The OD of wells containing cell titer reagent in culture medium with no cells was subtracted from the OD of all experimental readings.
The % decrease of the total cell titer signal was determined using the following formula. […] The p values were calculated versus diluent controls.

WM-266-4 cells = assay: Proliferation of WM-266-4 cells (separate experiment); settings: concentration not given
Excerpt: As shown there, Cpd. […] It should also be noted that, in a separate experiment, Cpd.

AU565 cells = assay: Cytotoxicity on confluent AU565 monolayers, cell titer assay
Procedure: (§1) To determine whether the decrease in cell titer signal caused by Cpd. 5 was due to the inhibition of proliferation or to cytotoxicity, STTG and AU565 cells were seeded at 10,000 cells/well in 96-well plates and grown until a confluent monolayer was obtained. Under these conditions, the cells should no longer proliferate. The culture medium was IMDM supplemented with 10% FBS. After the cells reached confluence, the culture medium was removed by aspiration and replaced with fresh medium containing the test compounds (see Table 2 below). The cell cultures were incubated for an additional 24 hours in the presence of the added compounds and then the cell titer signal was assayed by adding 20 μl Promega cell titer aqueous one reagent to each well. The plates were incubated at 37° C. for an additional 2 hours to allow the colorimetric assay to develop, and the OD of each well was determined in a microplate reader using a 530 nm filter. The OD of wells containing cell titer reagent in culture medium with no cells was subtracted from the OD of all experimental readings.
(§2) The % decrease of the total cell titer signal was determined using the following formula. ((Diluent OD−Experimental OD)/Diluent OD))×100. Data are presented in Table 2 as mean % decrease of cell titer signal of three separate experiments, plus or minus standard deviation. In the mean % decrease column, a positive number means a decrease in cell titer signal, while a negative number means an increase. The p values were calculated versus diluent controls.
(§3) This experiment was repeated, except using incubations of 18 hours, instead of 24 hours, in the presence of the compounds and 4 hours, instead of 2 hours, for color development.

MMP-9 = assay: Secretion of MMP-9 by BT001 glioma cells, gelatin zymogram; settings: 48 hours
Procedure: Assays were performed to determine the effect of Cpd. 5 (synthesis described in Example 1) on the secretion of MMP-9 by the BT001 glioma cell line. The BT001 cell line was established as follows from cells obtained after surgery. The excised tissue was treated briefly with a protease cocktail, and the resulting cell suspension was cultured in IMDM supplemented with 10% FBS. Expanded cells were then frozen for future use.
A fresh 50 mM stock solution of Cpd. 5 was prepared in ethanol and warmed to 37° C. Aliquots of the stock solution were removed and diluted in IMDM supplemented with 0.1% FBS, insulin-transferrin-sodium selenite (ITSS) solution, and penicillin/streptomycin solution to prepare experimental culture media (final concentrations of Cpd. 5 ranged from 10-100 μM). Ethanol in the culture medium was used as diluent control.
The BT001 cells were cultured in 25 cm^2 flasks in IMDM containing 10% FBS at 37° C. and 5% CO2. When cells reach 70-80% confluence, they were washed two times with IMDM that had been warmed to 37° C. in a water bath. The experimental culture media containing Cpd. 5 were then added to the flasks (4.5 ml per flask), and the flasks were incubated at 37° C. and 5% CO2 for 48 hours. The conditioned media were then removed from the cells, and cellular debris was removed by centrifugation at 2000 rpm for 10 minutes. The supernatants were then transferred to sterile tubes and stored at −20° C.
Gelatin zymograms were used to evaluate MMP release and activity in the samples. Precast 10% polyacrylamide gels impregnated with gelatin were obtained from Invitrogen, Carlsbad, Calif. Ten μL, of each of the thawed conditioned media were mixed with an equal volume of SDS-PAGE loading dye without reducing agent (obtained from Invitrogen, Carlsbad, Calif.), applied to the gels and separated at 150 volts for 1 hour. The gels were then processed following the manufacturer's recommended protocol (includes renaturing the gels for one hour and incubating overnight at 37° C. with gentle shaking for protease digestion of gelatin). Visualization of MMP activity was done by staining the gel with Invitrogen Simple Safe blue commassie solution and photographing the gel on a Kodak Image station. The intensity of the bands in the photos was determined using bundled Kodak software. Percent decrease was determined with the following formula: (Intensity of diluent control)−(Intensity of treatment)/(Intensity of diluent control)×100. The data presented in Table 4 are the means of three or four replicate experiments.

STTG cells = assay: Cytotoxicity on confluent STTG monolayers, cell titer assay
Procedure: as §1, §2, §3

[2] = confluent AU565, 50 μM, 18 hours
[3] = confluent AU565, 50 μM, 24 hours

## COC(=O)C(c1ccc(-c2ccccc2)cc1)C1NC(=O)CNC1=O (centres unmarked) [Cpd. 5, biphenyl-4-yl-(3,6-dioxo-piperazin-2-yl)-acetic acid methyl ester]
[1]; AU565, 50 μM
  MEAN % DECREASE of cell titer signal: 13.44%
WM-266-4 cells
  inhibition of the proliferation of WM-266-4 cells: did not inhibit
AU565 cells; confluent AU565, 10 μM, 18 hours
  MEAN % DECREASE of cell titer signal: −5.61%
AU565 cells; confluent AU565, 10 μM, 24 hours
  MEAN % DECREASE of cell titer signal: −8.87%
AU565 cells; [2]
  MEAN % DECREASE of cell titer signal: −9.73%
AU565 cells; [3]
  MEAN % DECREASE of cell titer signal: −10.79%
AU565 cells; confluent AU565, 100 μM, 18 hours
  MEAN % DECREASE of cell titer signal: −10.69%
AU565 cells; confluent AU565, 100 μM, 24 hours
  MEAN % DECREASE of cell titer signal: −11.05%
MMP-9; BT001, 10 μM
  MEAN % DECREASE ACTIVE MMP-9: 49.55 ± 21.49%
  MEAN % DECREASE PRO-MMP-9: 6.89 ± 20.51%
MMP-9; BT001, 50 μM
  MEAN % DECREASE ACTIVE MMP-9: 40.51 ± 9.73%
  MEAN % DECREASE PRO-MMP-9: 36.13 ± 20.53%
MMP-9; BT001, 100 μM
  MEAN % DECREASE ACTIVE MMP-9: 71.08 ± 17.47%
  MEAN % DECREASE PRO-MMP-9: 45.55 ± 20.50%
STTG cells; 10 μM, 18 hours
  MEAN % DECREASE of cell titer signal: 0.81%
STTG cells; 10 μM, 24 hours
  MEAN % DECREASE of cell titer signal: −7.13%
STTG cells; 50 μM, 18 hours
  MEAN % DECREASE of cell titer signal: 21.25%
STTG cells; 50 μM, 24 hours
  MEAN % DECREASE of cell titer signal: −1.76%
STTG cells; 100 μM, 18 hours
  MEAN % DECREASE of cell titer signal: 18.96%
STTG cells; 100 μM, 24 hours
  MEAN % DECREASE of cell titer signal: −10.79%

## O=c1cc(N2CCOCC2)oc2c(-c3ccccc3)cccc12 [LY294002, reference compound]
[1]; AU565, 20 μM
  MEAN % DECREASE of cell titer signal: 61.95%
WM-266-4 cells
  inhibition of the proliferation of WM-266-4 cells: 105%
AU565 cells; [2]
  MEAN % DECREASE of cell titer signal: 22.25%
AU565 cells; [3]
  MEAN % DECREASE of cell titer signal: 2.94%
STTG cells; 50 μM, 18 hours
  MEAN % DECREASE of cell titer signal: 26.27%
STTG cells; 50 μM, 24 hours
  MEAN % DECREASE of cell titer signal: 26.12%
